For orientation: IC50 means the midpoint of a concentration-inhibition curve.

The subject of the test is Phosphorylation of STAT6 in human A549 cells. The test can be described thus: Phosphorylated STAT6 (pSTAT6) flow cytometry assay in human A549 cells. It is filed as cell-based. The following applies: read-out: STAT6 IL4 pSTAT6 assay in A549 cells: Average IC50. From the text:
Example 3. Phosphorylated STAT6 (pSTAT6) Flow Cytometry Assay in Human A549 Cells
Phosphorylation of STAT6 in human A549 cells was quantitatively measured using flow cytometry technology.
Background: In flow cytometry, cells or beads pass a laser one at a time.
Take `Cc1ccc(Cl)c(-c2cc(C3=CCCN(C(=O)CCn4ccnn4)C3)cc3[nH]c(C(=O)N(C)C)cc23)c1` [Example I-1061]: the IC50 was < 100 nM.

For `Cc1cc(-c2cc(C3=CCCN(C(=O)CCn4ccnn4)C3)cc3cc(C(=O)N(C)C)oc23)n(C)n1` [Example I-1070], the IC50 was < 100 nM.

For the compound `COc1cc(F)cnc1N1CCN(C(=O)c2cc3c(-c4ccn(-c5ccccc5)n4)cc(C4=CCCN(C(=O)CCn5ccnn5)C4)c(F)c3[nH]2)CC1` [Example I-1113], the IC50 was in the range of 100 to 1000 nM.

For `COc1ccccc1-c1cc(C2=CCCN(C(=O)CCn3ccnn3)C2)c(F)c2[nH]c(C(=O)N3CCN(CC4(C#N)CC4)CC3)cc12` [Example I-1014], the IC50 was < 100 nM.

For `COc1cccnc1N1CCN(C(=O)c2cc3c(-c4cccc5ccccc45)cc(C4=CCCN(C(=O)CCn5ccnn5)C4)c(F)c3[nH]2)CC1` [Example I-397], the IC50 is > 100000 nM.

`COc1ccccc1-c1cc(C2=CCCN(C(=O)CCn3ccnn3)C2)c(F)c2[nH]c(C(=O)N3CCN(c4c(F)cc(F)cc4OC)CC3)cc12` [Example I-432]: the IC50 was < 100 nM.

Regarding `COc1cc(F)cnc1N1CCN(C(=O)c2cc3c(-c4ccc5c(c4)c(C4CC4)nn5C)cc(C4=CCCN(C(=O)CCn5ccnn5)C4)c(F)c3[nH]2)CC1` [Example I-622], the IC50 is < 100 nM.

On to `CN(C)C(=O)c1cc2ccc(C3=CCCN(C(=O)CCc4ccon4)C3)cc2[nH]1` [Example I-831], for which the IC50 is 100 to 1000 nM.

`CN(C)C(=O)c1cc2cc(C3=CCCN(C(=O)CCn4ccnn4)C3)cc(NCc3ccc(F)cc3)c2o1` [Example I-872]: the IC50 was in the range of 100 to 1000 nM.

For `C[C@@H](C(=O)N1CCC=C(c2ccc3cc(C(=O)N(C)C)[nH]c3c2)C1)n1ccccc1=O` [Example I-834], the IC50 was in the range of 100 to 1000 nM.

On to `CCc1cc(C)ncc1-c1cc(C2=CCCN(C(=O)CCn3ccnn3)C2)c(F)c2[nH]c(C(=O)N3CCN(c4nccnc4OC)CC3)cc12` [Example I-519], for which the IC50 was < 100 nM.

Take `CCCOc1ncc(C)cc1-c1cc(C2=CCCN(C(=O)CCn3ccnn3)C2)c(F)c2[nH]c(C(=O)N3CCN(c4ncc(F)cc4OC)CC3)cc12` [Example I-654]: the half-maximal inhibitory concentration (IC50) was < 100 nM.

`COc1cc(F)c(F)cc1-c1cc(C2=CCCN(C(=O)CCn3ccnn3)C2)c(F)c2[nH]c(C(=O)N3CCN(C4CC4)CC3)cc12` [Example I-604]: the half-inhibitory concentration (IC50) was < 100 nM.

As to `CN(C)C(=O)c1cc2cc(C3=CCCN(C(=O)CCn4ccnn4)C3)cc(-c3ccc4[nH]ccc4c3)c2o1` [Example I-1071], the IC50 is < 100 nM.

For the compound `CCc1nc(C)ccc1-c1cc(C(=O)N2CCN(c3ncc(F)cc3OC)CC2)cc2cc(C3=CCCN(C(=O)C(C)C(=O)O)C3)n(CC3CC3)c12` (stereo not drawn) [Example I-539], the IC50 is < 100 nM.

For the compound `COc1cc(F)cnc1N1CCN(C(=O)c2cc3c(C4=CCCCC4)cc(C4=CCCN(C(=O)CCn5ccnn5)C4)c(F)c3[nH]2)CC1` [Example I-1135], the IC50 was < 100 nM.

Turning to “(1R)-3-[4-(4-ethyl-3-pyridyl)-7-fluoro-2-[4-(5-fluoro-3-methoxy-2-pyridyl)piperazine-1-carbonyl]-1H-indol-6-yl]cyclohex-3-ene-1-carboxylic acid [Example I-810]”, the half-inhibitory concentration (IC50) is < 100 nM.

In the case of `CNc1ccc(-c2cc(C3=CCCN(C(=O)CCn4ccnn4)C3)c(F)c3[nH]c(C(=O)N(C)C)cc23)c(OC)c1` [Example I-1059], the IC50 is < 100 nM.

Consider `COc1ccccc1-c1cc(C(=O)N2Cc3cnn(C)c3C2)cc2cc(C3=CCCN(C(=O)CCn4ccnn4)C3)n(CC3CC3)c12` [Example I-736], for which the IC50 was < 100 nM.

For `COc1cc(F)cnc1N1CCN(C(=O)c2cc3c(C4=CCC(N5CCOCC5)CC4)cc(C4=CCCN(C(=O)CCn5ccnn5)C4)c(F)c3[nH]2)CC1` (stereo not drawn) [Example I-1153], the IC50 was < 100 nM.

With `COc1ccccc1-c1cc(C2=CCCN(C(=O)CCn3ccnn3)C2)c(F)c2[nH]c(C(=O)N3CCN(c4ccc(=O)[nH]c4C)CC3)cc12` [Example I-1022], the IC50 is < 100 nM.

For `COc1ccccc1-c1cc(C2=CCCN(C(=O)CCn3ccnn3)C2)c(F)c2[nH]c(C(=O)N3CCN(c4ccccc4OC)CC3)cc12` [Example I-349], the half-maximal inhibitory concentration (IC50) is < 100 nM.

`COc1cc(F)cnc1N1CCN(C(=O)c2cc3c(C4=CCCOC4)cc(C4=CCCN(C(=O)CCn5ccnn5)C4)c(F)c3[nH]2)CC1` [Example I-1126]: the IC50 is < 100 nM.

On to `COc1cc(F)ccc1-c1cc(C2=CCCN(C(=O)CCn3ccnn3)C2)cc2[nH]c(C(=O)N(C)C)cc12` [Example I-1055], for which the IC50 was < 100 nM.

For the compound `Cc1cc(C)c(-c2cc(C3=CCCN(C(=O)CCn4ccnn4)C3)cc3cc(C(=O)N(C)C)oc23)cc1C` [Example I-856], the IC50 was < 100 nM.

As to `CN(C)C(=O)c1cc2c(F)c(C3=CCCN(C(=O)[C@@H]4Cc5ccccc5CN4C=O)C3)ccc2o1` (single isomer, unassigned) [Example I-375], the IC50 fell in the range of 100 to 1000 nM.

Consider `COc1ccccc1-c1cc(C(=O)N(C)C)cc2cc(C3=CCCN(C(=O)CCn4ccnn4)C3)n(CC3CC3)c12` [Example I-899], for which the IC50 was < 100 nM.

Consider `COc1cc(F)cnc1N1CCN(C(=O)c2cc3c(-c4cnn(-c5ccccc5)c4C)cc(C4=CCCN(C(=O)CCn5ccnn5)C4)c(F)c3[nH]2)CC1` [Example I-625], for which the IC50 was < 100 nM.

For the compound `COc1ccccc1-c1cc(C2=CCCN(C(=O)CCn3ccnn3)C2)c(F)c2[nH]c(C(=O)N3CCN(c4ccc(C)cc4)CC3)cc12` [Example I-860], the IC50 lay in the range of 100 to 1000 nM.

Take `COc1ccccc1-c1cc(C2=CCCN(C(=O)CCn3ccnn3)C2)c(F)c2[nH]c(C(=O)N3CCN(c4ncccc4C#N)CC3)cc12` [Example I-328]: the IC50 was < 100 nM.

Turning to `COCc1cccc(NC(=O)c2cc3c(-c4ccccc4OC)cc(C4=CCCN(C(=O)CCn5ccnn5)C4)c(F)c3[nH]2)c1` [Example I-1028], the IC50 was 1000 to 10000 nM.

`COc1cccnc1N1CCN(C(=O)c2cc3c(-c4ccccc4OC(F)(F)F)cc(C4=CCCN(C(=O)CCn5ccnn5)C4)c(F)c3[nH]2)CC1` [Example I-558]: the IC50 was < 100 nM.

`COc1cccnc1N1CCN(C(=O)c2cc3c(-c4ccc(OC)c5c4OCCO5)cc(C4=CCCN(C(=O)CCn5ccnn5)C4)c(F)c3[nH]2)CC1` [Example I-583]: the IC50 is > 100000 nM.

`COc1ccccc1-c1cc(C2=CCCN(C(=O)CCn3ccnn3)C2)c(F)c2[nH]c(C(=O)N3CCc4nocc4C3)cc12` [Example I-1029]: the IC50 was < 100 nM.

In the case of `CN(C)CCN(C)C(=O)c1cc2cc(C3=CCCN(C(=O)CCn4ccnn4)C3)ccc2o1` [Example I-844], the IC50 lay within 100 to 1000 nM.

`COc1cccc(N2CCN(C(=O)c3cc4c(-c5ccncc5OC)cc(C5=CCCN(C(=O)CCn6ccnn6)C5)c(F)c4[nH]3)CC2)n1` [Example I-612]: the concentration for half-maximal inhibition (IC50) is < 100 nM.

As to `COc1ccccc1-c1cc(C2=CCCN(C(=O)CCn3ccnn3)C2)c(F)c2[nH]c(C(=O)N3CCN(c4nc(C)cs4)CC3)cc12` [Example I-1024], the IC50 was < 100 nM.

In the case of `COc1ccccc1-c1cc(C2=CCCN(C(=O)CCn3ccnn3)C2)c(F)c2[nH]c(C(=O)N3CCN(c4cc(F)c5ncccc5c4)CC3)cc12` [Example I-953], the IC50 is < 100 nM.

With `COc1cccnc1N1CCN(C(=O)c2cc3c(N4CCN(C)CC4)cc(C4=CCCN(C(=O)CCn5ccnn5)C4)c(F)c3[nH]2)CC1` [Example I-557], the half-maximal inhibitory concentration (IC50) is < 100 nM.

Source of the values: patent publication US20250214977A1, “STAT6 INHIBITORS AND USES THEREOF” (Kymera Therapeutics, Inc., priority 2024, published 2025).
